{"source": "patent US20220364056A1", "about": "“SHORT-CHAIN FATTY ACID PENTANOATE AS ENHANCER FOR CELLULAR THERAPY AND ANTI-TUMOR THERAPY” (PHILIPPS-UNIVERSITÄT MARBURG, priority 2019, published 2022)", "key": {"[1]": {"test_system": "human CD8+ T lymphocytes", "assay": "human CD8+ T lymphocytes differentiated into CTLs, flow cytometry", "type": "cell-based", "description": "(A and B) CD8^+ T cells isolated from spleens and LNs were polarized under Tc17-inducing conditions and treated with pentanoate for 3 days. Representative contour plots (A) and bar graphs (B) indicate the frequency of IL-17^+ and IFN-γ+ cells. Three similar experiments were performed. (C and D) CD8^+ T cells isolated from spleens and LNs were polarized under Tc9-inducing conditions and treated with pentanoate for 3 days. Representative contour plots (C) and bar graphs (D) are showing the frequency of IL-9^+ and IFN-γ+ cells. Three similar experiments were performed. (E and F) The expression of granzyme B, IFN-γ and Eomes in pentanoate-treated human CTLs was analysed by flow cytometry. Five independent experiments were performed (E). For Eomes, mean fluorescence intensity (MFI) values are shown (F, n=3).\n(A) CD8^+ T cells isolated from peripheral blood of healthy donors were differentiated into CTLs in presence or absence of indicated HDACi. Representative contour plots and dot plots indicate the frequency of TNF-α+ and IFN-γ^+ cells. Data points in the graphs represent individual donors (n=4, performed in 4 independent experiments) (B-G) Phenotyping of pentanoate-treated ROR1-specific CD8^+ CAR T cells (CARROR1 T cells). (B) Experimental setup for the functional analysis is shown. (C) The cytokine secretion (IFN-γ and TNF-α) was analysed in supernatants of pentanoate-treated CARROR1 T cells by ELISA. (D) The surface expression of CD25 was measured by flow cytometry. (E) The secretion of IL-2 was detected in supernatants of CARROR1 T cells by ELISA. (F) Proliferation of CARROR1 T cells was determined by CFSE labelling. CARROR1 T cells pre-treated with pentanoate were stained with CFSE and subsequently co-cultured with […] cells in the absence of pentanoate. CD8^+ T cells without the CAR construct were used as mock control cells. […] The percentage of lysed target cells was determined in 1 hour intervals (effector-to-target cell (E:T) ratio=2.5:1). […]"}, "[2]": {"target": "HDAC2 (Homo sapiens, UniProt Q92769)", "sequence (Q92769 whole entry, species assumed, canonical isoform)": "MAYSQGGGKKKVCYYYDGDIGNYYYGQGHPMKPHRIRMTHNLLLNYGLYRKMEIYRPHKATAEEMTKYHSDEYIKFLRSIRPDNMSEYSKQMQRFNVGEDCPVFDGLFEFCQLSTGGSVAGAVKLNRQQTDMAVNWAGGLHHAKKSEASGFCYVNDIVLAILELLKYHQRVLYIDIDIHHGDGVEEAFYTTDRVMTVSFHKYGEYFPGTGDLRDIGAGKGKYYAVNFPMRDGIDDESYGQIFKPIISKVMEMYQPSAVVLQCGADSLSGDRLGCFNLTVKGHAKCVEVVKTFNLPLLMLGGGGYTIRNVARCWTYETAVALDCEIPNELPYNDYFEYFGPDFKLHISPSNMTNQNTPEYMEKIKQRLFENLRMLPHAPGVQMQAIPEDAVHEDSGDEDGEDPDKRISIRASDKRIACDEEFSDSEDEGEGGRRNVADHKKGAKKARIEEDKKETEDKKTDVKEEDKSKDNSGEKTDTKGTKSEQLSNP", "assay": "HDAC inhibition of the recombinant HDAC2 isoform", "type": "biochemical", "conditions": "supernatants; different concentrations of SCFAs", "description": "(A) The production of SCFAs, branched-chain fatty acids (BCFAs) and medium-chain fatty acids (MCFAs) by 16 human commensals was measured by GC-MS. All bacteria were grown in vitro until stationary growth phase before the measurement of fatty acids in supernatants. (B and C) HDAC inhibition of recombinant class I and class II HDAC isoforms by cell-free supernatants derived from 16 members of human commensal community. Significance was tested against YCFA medium. (D) Impact of bacterial SCFAs, BCFAs and MSCFAs on the activity of class I and II HDAC enzymes. TSA was used as a control pan-HDAC inhibitor."}, "[3]": {"test_system": "STAT5", "assay": "IL-2-induced phosphorylation of STAT5 in CTLs, flow cytometry", "type": "cell-based, murine", "conditions": "CTLs generated with pentanoate 3 day, IL-2 50 U/ml", "excerpt": "(A) experimental setup for investigating CTL persistence in vivo is shown. (B-D) The frequency (B, C) and total cell numbers (D) of transferred T cells (WT CD45.1^+ CTLs, WT CD45.2^+ pentanoate-treated CTLs and Foxp3^+CD45.2^+ Tregs from FIR×tiger mice) in Rag1-deficient mice on days 15 after the adoptive transfer are shown. The co-transferred Foxp3^−CD4^+ cells were excluded from the gate (B, C). In D, n=_3 mice/group/experiment, data from 2 pooled independent experiments are shown. (E) The CFSE label of transferred T cells (WT CD45.1 CTLs, WT CD45.2^+ pentanoate-treated CTLs and CD45.2^+CD4^+ T cells) in Rag1-deficient mice on days 4 after the adoptive transfer are shown (n=3 mice/group/experiment, data pooled from 2 independent experiments are shown). […] (G and H) Frequencies and cell numbers of CD25^+ CD8^+ T cells were analysed by flow cytometry on day 15 after transfer of control CTLs (CD45.1^+) and pentanoate-treated CTLs (CD45.2^+) into Rag1-deficient mice (n=3 mice/group/experiment, data pooled from 2 independent experiments). […] The phosphorylated (p)-STAT5 levels were analysed by flow cytometry (n=5, performed in 3 independent experiments). (J) The secretion of IL-2 in pentanoate-treated CTLs cultured for indicated time points was measured by ELISA (n=4, pooled from 2 independent experiments)."}, "[4]": {"test_system": "mTOR", "assay": "phosphorylation of mTOR and S6 in murine CTLs", "type": "cell-based", "conditions": "pentanoate 2.5 mM, three days", "description": "(A and B) CTLs were cultured in medium containing 1.0% FCS and treated with pentanoate (2.5 mM) for three days. Representative histogram plots and bar graphs indicate the phoshorylated levels of mTOR (A) and S6 ribosomal protein (B), respectively (n=3 pooled from three independent experiments). (C and D) Human CTLs were cultured in medium containing 1.0% serum and treated with indicated HDACi for three days. Representative histogram plots and bar graphs indicate the phoshorylated levels of mTOR (C) and S6 ribosomal protein (D), respectively (data points represent four individual healthy donors) (E) Measurement of extracellular acidification rate (ECAR) for in vitro generated murine CTLs cultured with or without 2.5 mM pentanoate for three days. ECAR was measured under basal conditions and in response to glucose (10 mM), oligomycin (2 μM), and 2-deoxy-glucose (2-DG, 100 mM). One of three independent experiments is shown."}}, "data": [{"smiles": "CCCCC(=O)O", "note": "[pentanoate]", "values": [{"measurement": "expression of granzyme B, IFN-γ and Eomes", "setting": "[1]", "value": "enhancing the expression"}, {"measurement": "expression of TNF-α and IFN-γ", "setting": "[1]; healthy donors", "value": "enhancing the expression"}, {"measurement": "inhibition of the HDAC2 isoform", "setting": "[2]", "value": "strongly inhibited"}, {"measurement": "STAT5 activity in response to IL-2", "setting": "[3]", "value": "stronger STAT5 activity"}, {"measurement": "phosphorylation level of S6 ribosomal protein", "setting": "[4]", "value": "elevated the phosphorylation levels"}, {"measurement": "phosphorylation level of mTOR", "setting": "[4]", "value": "elevated the phosphorylation levels"}]}]}
